Experimental data published in PubChem BioAssay AID248 (DTP/NCI, 2004).
Several values for one entry are separate records, joined by “and”; a condition that tells them apart may be missing. Equal values may be shown once. Inconclusive results and toxic doses are left out. No stated cut-off is given here; in the data, active means T/C of 150% or more; inactive means T/C below 125%.

Test system: L1210 leukemia ip in BDF1 mice, survival T/C
Assay: NCI In Vivo Anticancer Drug Screen. Data for tumor model L1210 Leukemia (intraperitoneal) in B6D2F1 (BDF1) mice
Settings: endpoint: mean survival time, higher = longer survival
Method in brief: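 Tumor was transplanted into mice, which were then dosed with test compound or vehicle alone. Survival was recorded for each group, and the treated figure was expressed relative to the control figure.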

[1] = dose: 100.0 mg/kg/injection, schedule: Q01DX001 (ip), vehicle: saline
[2] = dose: 200.0 mg/kg/injection, schedule: Q01DX001 (ip), vehicle: saline
[3] = dose: 400.0 mg/kg/injection, schedule: Q01DX001 (ip), vehicle: saline
[4] = dose: 100.0 mg/kg/injection, schedule: Q01DX009 (ip), vehicle: Klucel (hydroxypropylcellulose) (HPC)
[5] = dose: 100.0 mg/kg/injection, schedule: Q04DX003 (ip), vehicle: Klucel (hydroxypropylcellulose) (HPC)
[6] = dose: 200.0 mg/kg/injection, schedule: Q01DX009 (ip), vehicle: Klucel (hydroxypropylcellulose) (HPC)
[7] = dose: 200.0 mg/kg/injection, schedule: Q04DX003 (ip), vehicle: Klucel (hydroxypropylcellulose) (HPC)
[8] = dose: 400.0 mg/kg/injection, schedule: Q01DX009 (ip), vehicle: Klucel (hydroxypropylcellulose) (HPC)
[9] = dose: 400.0 mg/kg/injection, schedule: Q04DX003 (ip), vehicle: Klucel (hydroxypropylcellulose) (HPC)
[10] = dose: 50.0 mg/kg/injection, schedule: Q01DX009 (ip), vehicle: saline
[11] = dose: 100.0 mg/kg/injection, schedule: Q04DX003 (ip), vehicle: saline
[12] = dose: 100.0 mg/kg/injection, schedule: Q04DX003 (ip), vehicle: saline with Tween-80
[13] = dose: 200.0 mg/kg/injection, schedule: Q04DX003 (ip), vehicle: saline with Tween-80
[14] = dose: 400.0 mg/kg/injection, schedule: Q04DX003 (ip), vehicle: saline with Tween-80
[15] = dose: 25.0 mg/kg/injection, schedule: Q01DX009 (ip), vehicle: Klucel (hydroxypropylcellulose) (HPC)
[16] = dose: 50.0 mg/kg/injection, schedule: Q01DX009 (ip), vehicle: Klucel (hydroxypropylcellulose) (HPC)
[17] = dose: 200.0 mg/kg/injection, schedule: Q04DX003 (ip), vehicle: saline
[18] = dose: 400.0 mg/kg/injection, schedule: Q04DX003 (ip), vehicle: saline
[19] = dose: 100.0 mg/kg/injection, schedule: Q04DX002 (ip), vehicle: Klucel (hydroxypropylcellulose) (HPC)
[20] = dose: 200.0 mg/kg/injection, schedule: Q04DX002 (ip), vehicle: Klucel (hydroxypropylcellulose) (HPC)

Measured: T/C

COc1ccc(/C=N\N/C(N)=N\N=C\c2ccc(OC)cc2)cc1
inactive: dose: 15.0 mg/kg/injection, schedule: Q01DX Z (ip), vehicle: carboxymethylcellulose (CMC) 89 % of control | dose: 30.0 mg/kg/injection, schedule: Q01DX Z (ip), vehicle: carboxymethylcellulose (CMC) 97 % of control | dose: 60.0 mg/kg/injection, schedule: Q01DX Z (ip), vehicle: carboxymethylcellulose (CMC) 93 % of control and 101 % of control | dose: 120.0 mg/kg/injection, schedule: Q01DX Z (ip), vehicle: carboxymethylcellulose (CMC) 92 % of control | dose: 240.0 mg/kg/injection, schedule: Q01DX Z (ip), vehicle: carboxymethylcellulose (CMC) 100 % of control | dose: 240.0 mg/kg/injection, schedule: Q01DX Z (oral), vehicle: carboxymethylcellulose (CMC) 107 % of control | dose: 480.0 mg/kg/injection, schedule: Q01DX Z (ip), vehicle: carboxymethylcellulose (CMC) 90 % of control | dose: 480.0 mg/kg/injection, schedule: Q01DX Z (oral), vehicle: carboxymethylcellulose (CMC) 105 % of control | dose: 960.0 mg/kg/injection, schedule: Q01DX Z (oral), vehicle: carboxymethylcellulose (CMC) 104 % of control | dose: 1920.0 mg/kg/injection, schedule: Q01DX Z (oral), vehicle: carboxymethylcellulose (CMC) 102 % of control

c1ccc2c(c1)CCc1c-2[nH]c2c1ccc1ccccc12
inactive: [1] 91 % of control | [2] 111 % of control | [3] 94 % of control

COc1ccc(NC(=O)Nc2cc(Cl)ccc2OC)c(OC)c1
inactive: [4] 94 % of control | [5] 103 % of control | [6] 102 % of control | [7] 101 % of control | [8] 96 % of control | [9] 101 % of control

Cc1ccc(S(=O)(=O)N(CCC(=N)N)C(C)C)cc1
inactive: dose: 25.0 mg/kg/injection, schedule: Q01DX009 (ip), vehicle: saline 91 % of control | [10] 96 % of control | dose: 100.0 mg/kg/injection, schedule: Q01DX009 (ip), vehicle: saline 96 % of control | [11] 104 % of control

COc1cc(/C=N\N=C\c2cc(OC)c(OC)c(OC)c2)cc(OC)c1OC
inactive: dose: 100.0 mg/kg/injection, schedule: Q01DX009 (ip), vehicle: saline with Tween-80 96 % of control | [12] 97 % of control | dose: 200.0 mg/kg/injection, schedule: Q01DX009 (ip), vehicle: saline with Tween-80 96 % of control | [13] 92 % of control | dose: 400.0 mg/kg/injection, schedule: Q01DX009 (ip), vehicle: saline with Tween-80 92 % of control | [14] 92 % of control

CCC1(c2ccccc2)CCN(C)C1 (stereo not given)
inactive: dose: 75.0 mg/kg/injection, schedule: Q01DX001 (ip), vehicle: carboxymethylcellulose (CMC) 93 % of control

CCCCCCCN=C(N)c1ccc(C(=O)OC2CCCCC2)cc1
inactive: [1] 96 % of control

CC(=O)Nc1ccc(OC(=O)Nc2c(C)cccc2Cl)cc1
inactive: [15] 101 % of control | [16] 95 % of control | [4] 94 % of control and 101 % of control

CC(C)c1sc([S-])n[n+]1-c1ccccc1
inactive: [1] 104 % of control | [11] 101 % of control | [2] 101 % of control | [17] 95 % of control | [3] 91 % of control | [18] 101 % of control

O=C(NCNC(=O)c1ccccc1)c1ccccc1
inactive: [5] 100 % of control | [6] 103 % of control | [7] 90 % of control | [8] 92 % of control | [9] 103 % of control

CCCCCCCCCCCCCc1nc(N)nc(NCCCC)n1
inactive: [19] 92 % of control | [20] 89 % of control | dose: 400.0 mg/kg/injection, schedule: Q04DX002 (ip), vehicle: Klucel (hydroxypropylcellulose) (HPC) 100 % of control

Cc1cc(C)c2c(C#N)cn(-c3ccc([N+](=O)[O-])cc3)c2n1
inactive: dose: 100.0 mg/kg/injection, schedule: Q01DX001 (ip), vehicle: saline with Tween-80 98 % of control | dose: 200.0 mg/kg/injection, schedule: Q01DX001 (ip), vehicle: saline with Tween-80 109 % of control | [2] 102 % of control | dose: 400.0 mg/kg/injection, schedule: Q01DX001 (ip), vehicle: saline with Tween-80 95 % of control | [3] 94 % of control

Cc1cccc(C)c1N(N=O)C(=O)c1ccccc1
inactive: dose: 75.0 mg/kg/injection, schedule: Q01DX001 (ip), vehicle: saline 98 % of control | dose: 150.0 mg/kg/injection, schedule: Q01DX001 (ip), vehicle: saline 98 % of control

Cc1ccc(OS(=O)(=O)C2CC2c2ccccc2)cc1 (stereo not given)
inactive: [1] 92 % of control | [11] 102 % of control | [2] 97 % of control | [17] 98 % of control | [3] 98 % of control | [18] 94 % of control

CCOC(Nc1cc(Cl)cc(Cl)c1)C(=O)c1ccccc1 (stereo not given)
inactive: [1] 97 % of control | [2] 91 % of control | [3] 91 % of control

CCN(CC)CCNCc1cc(Cl)c2cccnc2c1O
inactive: dose: 6.25 mg/kg/injection, schedule: Q04DX002 (ip), vehicle: saline 90 % of control | dose: 12.5 mg/kg/injection, schedule: Q04DX002 (ip), vehicle: saline 97 % of control | dose: 25.0 mg/kg/injection, schedule: Q04DX002 (ip), vehicle: saline 94 % of control

O=C1O[C@@H]2[C@@H](I)[C@@H]3C[C@@H]2[C@@H]1C3
inactive: dose: 5.0 mg/kg/injection, schedule: Q01DX001 (ip), vehicle: carboxymethylcellulose (CMC) 91 % of control | dose: 10.0 mg/kg/injection, schedule: Q01DX001 (ip), vehicle: carboxymethylcellulose (CMC) 93 % of control | dose: 20.0 mg/kg/injection, schedule: Q01DX001 (ip), vehicle: carboxymethylcellulose (CMC) 94 % of control | dose: 40.0 mg/kg/injection, schedule: Q01DX001 (ip), vehicle: carboxymethylcellulose (CMC) 91 % of control | dose: 80.0 mg/kg/injection, schedule: Q01DX001 (ip), vehicle: carboxymethylcellulose (CMC) 93 % of control

C1=CC2CCC1NO2 (stereo not given)
inactive: [1] 105 % of control | [2] 95 % of control | [3] 101 % of control

ClCCN(CCCl)CCNc1ccnc2cc(Cl)ccc12
inactive: dose: 5.0 mg/kg/injection, schedule: Q01DX001 (ip), vehicle: saline 100 % of control | dose: 10.0 mg/kg/injection, schedule: Q01DX001 (ip), vehicle: saline 108 % of control | dose: 20.0 mg/kg/injection, schedule: Q01DX001 (ip), vehicle: saline 117 % of control | dose: 40.0 mg/kg/injection, schedule: Q01DX001 (ip), vehicle: saline 116 % of control

O=C(O)C(F)(F)C(F)(F)C(F)(F)F.O=C(O)C(F)(F)C(F)(F)C(F)(F)F.O=C(O)C(F)(F)C(F)(F)C(F)(F)F.O=C(O)C(F)(F)C(F)(F)C(F)(F)F.[Rh].[Rh]
inactive: dose: 25.0 mg/kg/injection, schedule: Q04DX002 (ip), vehicle: saline with Tween-80 94 % of control | dose: 50.0 mg/kg/injection, schedule: Q04DX002 (ip), vehicle: saline with Tween-80 102 % of control | dose: 100.0 mg/kg/injection, schedule: Q04DX002 (ip), vehicle: saline with Tween-80 105 % of control

CC(C)OCCCNC(=O)NS(=O)(=O)c1ccc(N)cc1
inactive: [12] 101 % of control | [13] 100 % of control | [14] 92 % of control

CC(=O)NC1C(OCC(NC(=O)OCc2ccccc2)C(=O)NC(CC(=O)OCc2ccccc2)C(=O)OCc2ccccc2)OC(COC(C)=O)C(OC(C)=O)C1OC(C)=O (stereo not given)
inactive: dose: 50.0 mg/kg/injection, schedule: Q04DX002 (ip), vehicle: Klucel (hydroxypropylcellulose) (HPC) 97 % of control | [19] 97 % of control | [20] 87 % of control

CCc1cccc[n+]1Cc1ccccc1
inactive: [10] 90 % of control

O=C(C[n+]1ccccc1Cc1ccccc1)c1ccccc1
inactive: [12] 94 % of control | [11] 102 % of control

CN(C(=O)c1ccccc1)N(C)C(=O)c1ccccc1
inactive: [15] 106 % of control | [16] 95 % of control | dose: 50.0 mg/kg/injection, schedule: Q04DX003 (ip), vehicle: Klucel (hydroxypropylcellulose) (HPC) 98 % of control | [5] 110 % of control
